Assays:
[1] = Intraocular pressure after SCS TA (Example 9); type: in vivo, New Zealand White rabbit; conditions: 3.2 or 5.2 mg TA SCS
Experimental: (§1) In this study, the ocular tolerability and toxicokinetics of suprachoroidal administration of triamcinolone acetonide (TA) using a microneedle in a GLP study in the New Zealand White rabbit.
(§2) On Day 0, New Zealand White (NZW) rabbits were administered a single bilateral supraehoroidal injection of vehicle, 3.2 mg (80 μL) or 5.2 mg (130 μL) of TA (Triesence®, Alcoa labs) using a 33 g 750 μm microneedle. Clinical observations, slit lamp biomicroscopy with McDonald-Shadduck scoring, intraocular pressure assessment (IOP), electroretinography (ERG), and systemic exposure were assessed up to 26 weeks post-dose. Animals were sacrificed on Day 1, Week 13, and Week 26 for macroscopic observations, ocular toxicokinetics, and ocular histopathology.

[2] = Plasma and ocular matrix toxicokinetics after SCS TA, LC-MS/MS (Example 9); type: in vivo, New Zealand White rabbit
Experimental: as §2
Plasma and oct lar matrixes (aqueous humor (AH), lens, iris/ciliary body (ICB), vitreous humor (VH), sclera/choroid (SC), and retina) were sampled on Days 1, 14, 28, and 60. Plasma (LLOQ 0.5 ng/mL) and ocular matrixes (LLOQ 2-15 ng/mL) were analyzed using LC-MS/MS, and resulting data were assessed for noncompartmental PK parameters. Systemic exposure to TA was minimal (FIG. 20C).

[3] = Ocular histopathology after SCS TA (Example 9); type: in vivo, New Zealand White rabbit
Experimental: as §1, §2

[4] = system: subretinal endotoxin-induced model of posterior segment uveitis; assay: Subretinal endotoxin-induced model of posterior segment uveitis, pretreatment with SCS or IVT TA (Example 11); type: in vivo, New Zealand White rabbits
Experimental: In this study, the effects of pretreatment with suprachoroidal or intravitreal triamcinolone acetonide (TA) in a subretinal endotoxin-induced model of posterior segment uveitis in New Zealand White rabbits was evaluated.
On Day 1, female rabbits (4 eyes/group) received a single unilateral injection of vehicle or 4 mg TA (Triesence®, 40 mg/mL suspension, Alcon Labs) into the suprachoroidal space (SCS) using a 33 g 750 μm microneedle, or a 4 mg TA IVT injection using a standard 30 g needle. On Day 6, each animal received a single unilateral subretinal injection of lipopolysaccharide (LPS, 20-30 μL, 203 μg/g of 1% sodium hylauronate) to induce ocular inflammation in the treated eye. Animals were monitored for 22 days following dose administration. Endpoints included body weights, ocular observations, slit lamp biomicroscopy with McDonald-Shadduck scoring and photography, indirect ophthalmoscopy, fundus photography, intraocular pressure (IOP), and histopathology. A summary of the study design is shown below, in Table 6.

[5] = system: LPS-induced acute posterior uveitis; assay: Ocular inflammatory scores in LPS-induced porcine uveitis (Example 13); conditions: for mean cumulative inflammatory scores compared with Group 1 (BSS IVT/vehicle SCS): Days 1, 2, and 3
Experimental: A totalof 20 domestic wearrling pigs (Sus sergfir domesticus), male or female, (12-20 kg) were used in this study. Only the left eye was tested in this study; the right eye was not injected, examined, or treated. All injections were performed with the pigs anesthetized (intramuscular Telazol-Ketamine-Xylazine and isoflorane in oxygen via mask) and the eve prepared aseptically (sterile 5% betadine solution followed by irrigation with sterile eyewash).
Twenty-four hours prior to SCS or IVT injection of TA or vehicle (Day-1), 100 ng of lipopolysaccharide (ITS; E. coli 055:B55; Sigma, Inc. St. Louis, Mo.) in 100 μL BSS (Balanced Salt Solution, Alcon Laboratories, Inc., Forth Worth, Tex.), was injected using a 27 gauge needle into the posterior central vitreous.
Twenty-four hours after the LPS injection (Day 0), 0.2 mg or 2.0 mg of commercially-available TA (Triesence®; Alcon Laboratories, Inc, Forth Worth, Tex.) or vehicle was injected either intravitreally (27 gauge needle) or into the SCS (33 gauge, 850 μm microneedle) in eyes prepared aseptically (Table 7). The dose of TA was selected to represent a typical therapeutic dose (e.g., 2.0 mg) and a dose 10 times less to compare therapeutic effect.
All injections were made superiorly, approximately 5-6 mm posterior to the limbus. […] TA was diluted using vehicle to provide a low dose (0.2 mg/100 μL) or high dose (2.0 mg/100 μL). The vehicle (100 uL) was also used in the control groups, but without TA.
A Hackett-McDonald microscopic ocular inflammatory scoring system, modified for use in pigs (instead of New Zealand White rabbits) as described below, was used to evaluate the ocular anterior segment and anterior vitreous. Scores of the conjunctiva (congestion, swelling, discharge, 0-4); aqueous flare (0-3); pupillary light reflex (0-2); iris involvement (0-4); cornea (involvement and area, 0-4); pannus (vascularization, 0-2); and anterior vitreal cellular infiltrate (0-4) were summed to provide a single inflammatory score for each animal for each examination. Using a portable slit lamp biomicroscope (Zeiss HSO-10, Carl Zeiss Meditec, Inc. USA), ocular inflammatory scores were evaluated at Day -1 (prior to LPS injection), at Day 0 (prior to vehicle or TA injection), then at 1, 2 and 3 days after injection,
For histologic grading, two independent observers masked to the treatment group evaluated each eye at each time point and the average resulting scores for each animal were used for analysis, Parametric normally distributed data (i.e., IOP, ERG, retinal thickness, cell counts, protein concentration) were compared by time point for each group using 1-way ANOVA models with Tukey-Kramer post-hoc analysis. For non-parametric data (i.e., clinical scores, histologic grades), Wilcoxon tests were conducted per animal by time point. Differences were considered significant at P<0.05. Results and probAilities were calculated using computerized statistical software (JMP 10, SAS Inc. Cary, N.C.).

[6] = Clinical observations and tolerability, SCS vs IVT TA (Example 10); type: in vivo, New Zealand White rabbit
Experimental: In this study, the ocular and systemic pharmacokinetics (PK) of triar cinolone acetonide (TA) in the New Zealand White rabbit following intravitreal […] injection or administration into the suprachoroidal space (SCS) using a hollow rnicroneedle were evaluated.
On Day 0, male rabbits (5 per group) received a single bilateral administration of 4 mg TA (100 μL Triesence triamcinolone formulationAlcon Labs) via SCS injection using a 33 g 750 μm microneedle or an IVT injection using a standard 30 g needle. The study design is shown below in Table 4.
Clinical observations, body weights, and intraocular pressure (IOP) were assessed up to 13 weeks post-dose. Plasma and ocular matrixes (aqueous humor (AH), lens, iris/ciliary body (ICB), vitreous humor (VH), sclera/choroid (SC), and retina) were sampled on Days 1, 14, 28, 56, and 91. Plasma (LLOQ 0.5 ng/mL) and ocular matrixes (LLOQ 2 -15 ng/mL) were analyzed using LC-MS/MS, and resulting data were assessed for noncompartmentat PK parameters.

In the case of CC1(C)O[C@@H]2C[C@H]3[C@@H]4CCC5=CC(=O)C=C[C@]5(C)[C@@]4(F)[C@@H](O)C[C@]3(C)[C@]2(C(=O)CO)O1 [TA, triamcinolone acetonide], the “effect on IOP” value [1] is reported as “No effect”, the “systemic exposure to TA” value ([2]; 3.2 or 5.2 mg TA SCS, plasma) is reported as “minimal” and the “difference between TA levels in sclera/choroid and in the vitreous” value ([2]; SCS TA) is reported as 6 orders of magnitude. The “amount of TA retained in the retina, high dose vs low dose” value ([2]; by day 15, SCS) was “did not significantly differ”, the “amount of TA retained in the sclera/choroid, high dose vs low dose” value ([2]; by day 30, SCS) was “did not significantly differ” and the “order of TA in ocular matrixes (decreasing)” value ([2]; following SCS TA) was “SC>retina>ICB>VH>lens>AU”. For the same molecule, the “sclera/choroid tissue concentration of TA” value ([2]; for longer than 28 days after a single SCS dose) was “greater than 100 μg/g tissue”, the “TA peak concentration in plasma” value ([2]; peaked on Day 1, both the high and low TA dose groups (5.2 and 3.2 mg SCS)) was “around 12 nglint” and the “adverse effects related to the method of administration or treatments, as assessed by histopathology” value ([3]; 3.2 or 5.2 mg TA SCS) was “no adverse effects”. The “inflammatory cells and test article in the suprachoroidal space (histopathology)” value ([3]; 3.2 or 5.2 mg TA SCS) was “observed in the suprachoroidal space of TA-treated animals on Day 1 but not Week 13”, the “Ciliary process edema, animals with finding” value (from here on “Ciliary process edema, animals”) ([3]; Day 1, 3.2 mg TA/eye SCS, F) was 4 and the “Corneal epithelial thinning, animals with finding” value (shortened to “Corneal epithelial thinning”) ([3]; Day 1, 3.2 mg TA/eye SCS, F) was 2. The “Inflammatory cells in SCS, animals with finding” value (from here on “Inflammatory cells in SCS”) ([3]; Day 1, 3.2 mg TA/eye SCS, F) was 4, the “TA in SCS, animals with finding” value ([3]; Day 1, 3.2 mg TA/eye SCS, F) was 5 and the “Ciliary process edema, animals” value ([3]; Day 1, 3.2 mg TA/eye SCS, M) was 4. The “Conjunctival subepithelial inflammatory cells, animals with finding” value ([3]; Day 1, 3.2 mg TA/eye SCS, M) was 3, the “Corneal epithelial thinning” value ([3]; Day 1, 3.2 mg TA/eye SCS, M) was 3 and the “Inflammatory cells in SCS” value ([3]; Day 1, 3.2 mg TA/eye SCS, M) was 5. The “TA in SCS, animals with finding” value ([3]; Day 1, 3.2 mg TA/eye SCS, M) was 5, the “Ciliary process edema, animals” value ([3]; Day 1, 5.2 mg TA/eye SCS, F) was 5 and the “Conjunctival subepithelial inflammatory cells, animals with finding” value ([3]; Day 1, 5.2 mg TA/eye SCS, F) was 3. For the same molecule, the “Corneal epithelial thinning” value ([3]; Day 1, 5.2 mg TA/eye SCS, F) was 1, the “Inflammatory cells in SCS” value ([3]; Day 1, 5.2 mg TA/eye SCS, F) was 5 and the “Small area of retinal damage (attributed to needle insertion), animals with finding” value ([3]; Day 1, 5.2 mg TA/eye SCS, F) was 1. For the same molecule, the “TA in SCS, animals with finding” value ([3]; Day 1, 5.2 mg TA/eye SCS, F) was 5, the “Ciliary process edema, animals” value ([3]; Day 1, 5.2 mg TA/eye SCS, M) was 4 and the “Conjunctival subepithelial inflammatory cells, animals with finding” value ([3]; Day 1, 5.2 mg TA/eye SCS, M) was 2. For the same molecule, the “Corneal epithelial thinning” value ([3]; Day 1, 5.2 mg TA/eye SCS, M) was 3, the “Inflammatory cells in SCS” value ([3]; Day 1, 5.2 mg TA/eye SCS, M) was 5 and the “TA in SCS, animals with finding” value ([3]; Day 1, 5.2 mg TA/eye SCS, M) was 4. For the same molecule, the “Ciliary process edema, animals” value ([3]; Week 13, 3.2 mg TA/eye SCS, F) was 1, the “Dilated choroidal vessels, animals with finding” value ([3]; Week 13, 3.2 mg TA/eye SCS, F) was 1 and the “Small area of retinal damage (attributed to needle insertion), animals with finding” value ([3]; Week 13, 3.2 mg TA/eye SCS, F) was 1. The “Ciliary process edema, animals” value ([3]; Week 13, 3.2 mg TA/eye SCS, M) was 3, the “Ciliary process edema, animals” value ([3]; Week 13, 5.2 mg TA/eye SCS, F) was 3 and the “Ciliary process edema, animals” value ([3]; Week 13, 5.2 mg TA/eye SCS, M) was 1. For the same molecule, the “Dilated choroidal vessels, animals with finding” value ([3]; Week 13, 5.2 mg TA/eye SCS, M) was 1, the “Iris vessel dilation and tortuosity compared with the SCS vehicle group” value ([4]; 4 mg TA IVT) was “reduced to a lesser extent” and the “Vitritis, aqueous flare, and cellularity compared to SCS vehicle eyes” value ([4]; 4 mg TA IVT) was “substantially less severe”. The “inflammation as assessed histopathologically compared with the vehicle group” value ([4]; 4 mg TA IVT) was “marked reduction”, the “Iris vessel dilation and tortuosity compared with the SCS vehicle group” value ([4]; 4 mg TA SCS) was “reduced” and the “Vitritis, aqueous flare, and cellularity compared to SCS vehicle eyes” value ([4]; 4 mg TA SCS) was “substantially less severe”. The “inflammation as assessed histopathologically compared with the vehicle group” value ([4]; 4 mg TA SCS) was “marked reduction”, the “effectiveness in reducing the inflammatory response, SCS vs IVT” value ([4]; 4 mg TA SCS by hollow microneedle) was “as effective as 4 mg IVT TA” and the “overall inflammatory response / inflammatory endpoints compared to vehicle control” value ([4]; 4 mg TA SCS, pretreatment Day 1, LPS Day 6) was “significant reduction”. For the same molecule, the “effectiveness in reducing acute ocular inflammation” value ([5]; 0.2 mg TA IVT) was “less effective”, the “mean cumulative inflammatory scores compared with Groups 1, 3, 4 and 6” value ([5]; 0.2 mg TA IVT (Group 5), 24 hours after treatment (Day 1)) was “significantly higher” and the “mean cumulative inflammatory scores compared with SCS TA (Groups 3 and 4) and Group 1” value ([5]; 0.2 mg TA IVT, 48 and 72 hours after treatment) was “significantly higher mean scores”. The “mean cumulative inflammatory scores compared with Group 1 (BSS IVT/vehicle SCS)” value ([5]; 0.2 mg TA SCS (Group 3)) was “not significantly different”, the “mean cumulative inflammatory scores compared with Group 1 (BSS IVT/vehicle SCS)” value ([5]; 2.0 mg TA SCS (Group 4)) was “not significantly different” and the “effectiveness in reducing inflammation compared with 2.0 mg TA IVT injection” value ([5]; SCS injection of 0.2 mg and 2.0 mg of TA) was “as effective”. For the same molecule, the “decrease in effective dose when the drug is delivered to the SCS” value ([5]; SCS vs IVT) was 10 fold, the “adverse effects related to treatment or method of administration” value ([6]; SCS and IVT, 4 mg TA) was “no observed adverse effects” and the tolerability ([6]; both IVT and SCS TA, 4 mg, albino rabbit) was “well tolerated”.
